In patent US20170173114A1, “METHODS AND COMPOSITIONS FOR INDUCTION OF UCP1 EXPRESSION” (Joslin Diabetes Center, Inc., priority 2014, published 2017):

Tests used:
Assay type in all cases: cell-based, murine
[1] = system: WT-1 brown preadipocytes; assay: 2-deoxy-[3H]glucose uptake in WT-1 brown preadipocytes; conditions: growth media, two days
Protocol: The following glucose uptake assay was used to determine whether FGF6 could impact cellular glucose uptake. Specifically, glucose uptake was monitored in WT-1 brown preadipocytes and 3T3-F442A white preadipocytes in the presence or absence of FGF6. After serum starvation in DMEM/H medium containing 1% of BSA for 2-3 h, cells were washed with HEPES buffer and then incubated with or without 100 nM insulin for 30 min in DMEM/H medium containing 1% of BSA. Glucose transport was determined by the addition of 2-deoxy-[3H]glucose (0.1 mM, 0.5 μCi/mL; PerkinElmer Life and Analytical Science, Waltham, Mass.). After 5 minutes of incubation, the reaction was stopped by ice-cold PBS and cells were washed twice with ice-cold PBS. Cells were then lysed in 0.1% SDS, and glucose uptake was assessed in 4 mL of scintillant using Beckman LS6500 scintillation counter (Beckman Coulter, Indianapolis Ind.). Nonspecific 2-deoxy-[3H]glucose uptake was measured in the presence of cytochalasin B (20 μM) and was subtracted from the total uptake to get specific glucose uptake. Results were expressed as the mean±s.e.m. of the indicated number of experiments. The protein content was determined by the Bradford method.
The role of PGs in regulating mitochondrial function and cellular glucose uptake was also assessed. […]

[2] = system: UCP1; assay: UCP1 mRNA expression (Q-RT-PCR) in WT-1 brown preadipocytes; conditions: WT-1, 24 hours; vs vehicle
Protocol: Total RNA was isolated with QIAzol lysis reagent (Qiagen, Valencia, Calif.) and purified by RNeasy Mini columns (Qiagen) following the manufacture's instructions. cDNA was prepared from total RNA using the Advantage RT-PCR kit (BD Biosciences, Palo Alto, Calif.) according to manufacturer's instructions. Diluted cDNA was used in a PCR reaction with SYBR Green Master Mix (Applied Biosystems, Foster City, Calif.) and primers specifically designed for detection of the gene of interest. PCR reactions were run in duplicate for each sample and quantitated in the ABI Sequence Detection System (Applied Biosystems). Data were expressed as arbitrary units after normalization to levels of expression of internal controls for each sample. Sequences of primers for specific genes are each obtained from the published literature or designed using publically available gene sequence databases. Unless otherwise indicated, gene expression data described in the examples below was obtained using QPCR.
The effect of FGF6 on differentiation of WT-1 murine brown preadipocytes was also examined. WT-1 cells can be induced to undergo brown adipocyte differentiation, characterized by lipid accumulation and expression of adipogenic and brown fat markers, as described above (Klein et al. (1999) J Biol Chem 274:34795; Tseng et al. (2005) Nat Cell Biol 7:601). WT-1 cells were treated with FGF6 in growth media (DMEM+10% FBS), a vehicle control (“control” or “C” referred to in FIGS. 3A-D), or induction media (“induction” or “I” referred to in FIGS. 3A-D) as described above for seven days. Following the treatment, cells were examined for the color of the culture media in combination with oil Red O staining, expression of adipogenic markers, expression of brown fat markers, immunofluorescent staining of cells with UCP1 and DPAI, and Western blot analysis to determine the presence of UCP1 and β-tubulin. The results are described in FIGS. 3A to 3D.
UCP1 mRNA expression in brown adipocyte cells was determined at FGF6 concentrations ranging from 0 to 300 ng/ml in the absence of induction cocktail.
In order to determine the length of time necessary to induce UCP1 expression upon exposure to of cells to FGF6, an experiment was performed whereby FGF6 was administered to brown preadipocytes at a concentration of 200 ng/ml and UCP1 expression was determined. FGF21 and a control were also used in the time course experiment. FGF21, a member of the endocrine FGF ligands that has been implicated in the browning of white fat (Fisher F. M. et al., Genes Dev. 26:271-281, 2012). […] FGF6 could acutely induce a significant increase of UCP1 expression as early as 4 hours after a 200 ng/ml dose, as described in FIG. 4B. At 24 hours, the fold-induction of UCP1 mRNA by FGF6 reached 700-fold higher than the untreated cells, as described in FIG. 4B.
To assess FGF6's role in the regulation of mitochondrial activity, FGF6 was stably expressed in WT-1 brown preadipocytes and 3T3-F442A white preadipocytes. Stable cells were generated by viral infection followed by drug selection.
FGF2, FGF6 and FGF9 were used at a dosage of 50 ng/mL, 100 ng/mL, 200 ng/mL or 300 ng/mL. FGF21 was used at the dosage of 50 ng/ml and 500 ng/mL. The concentration of BMP7 was 3.3 nM. RNA was isolated and UCP1 and PPARγ expression levels were evaluated by quantitative reverse transcription polymerase chain reaction (Q-RT-PCR) analysis after 24 hours (i.e., 1 day) (FIG. 14A), 2 days (FIG. 14B), 5 days (FIG. 14C) and 7 days (FIG. 14D) of treatment. All experiments were performed triplicate and the data are presented as mean+/−SEM.
FGF2, FGF6 and FGF9 were used at a dosage of 200 ng/mL. FGF21 was used at a dosage of 500 ng/mL. The concentration of BMP7 was 3.3 nM. mRNA was isolated and UCP1 and PPARγ expression levels were evaluated by quantitative reverse transcription polymerase chain reaction (Q-RT-PCR) analysis after 24 hours (i.e., 1 day), 2 days, 5 days and 7 days of treatment (FIG. 15). […]

[3] = system: LDHA, PDK1, PKM2; assay: LDHA, PDK1 and PKM2 mRNA expression in WT-1 cells; conditions: WT-1, 24 hours; vs vehicle
Protocol: To test the role of specific prostaglandins (PGs) in activating UCP1 expression, WT-1 brown adipocytes were pretreated with PGE2, PGI2 and FGF6 for 24 hours. mRNA expression levels of UCP1, PTGS2, LDHA, PDK1 and PKM2 were then measured.

CCCCC[C@H](O)/C=C/[C@@H]1[C@H]2C/C(=C/CCCC(=O)O)O[C@H]2C[C@H]1O [PGI2, reference compound]
glucose uptake in WT-1 brown preadipocytes [1]: enhanced
UCP1 mRNA expression [2]: significantly induced
LDHA mRNA expression [3]: increase
PDK1 mRNA expression [3]: increase
PKM2 mRNA expression [3]: increase

CCCCC[C@H](O)/C=C/[C@H]1[C@H](O)CC(=O)[C@@H]1C/C=C\CCCC(=O)O [PGE2, reference compound]
glucose uptake in WT-1 brown preadipocytes [1]: enhanced
UCP1 mRNA expression [2]: significantly induced
LDHA mRNA expression [3]: increase
PDK1 mRNA expression [3]: increase
PKM2 mRNA expression [3]: increase
